Results: PubChem BioAssay (NCI)
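All cell lines were grown in 96-well plates and treated with compound for 48 hours. GI50 marks 50% less growth. The concentration for full growth arrest is given as TGI.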

Key:
Experiment in all cases: inhibition of tumour cell growth, NCI panel, 48 h
[1] = test system: HOP-92 NSCLC
[2] = test system: MOLT-4 leukemia
[3] = test system: A498 renal
[4] = test system: EKVX NSCLC
[5] = test system: SNB-19 CNS
[6] = test system: ACHN renal
[7] = test system: HT29 colon
[8] = test system: MALME-3M melanoma
[9] = test system: MCF7 breast
[10] = test system: PC-3 prostate

O=C(COC(=O)c1cccc2c(=O)c3ccccc3[nH]c12)Nc1ccc(Cl)cc1
TGI [1]: > 100 µM
TGI [2]: > 100 µM
TGI [3]: 60 µM
TGI [4]: > 100 µM
TGI [5]: > 100 µM
TGI [6]: > 100 µM
TGI [7]: > 100 µM
TGI [8]: > 100 µM

C[C@@]1(C(=O)O)CCC[C@]2(C)C1CC[C@]13C[C@@](O)(CO)[C@](O)(CC[C@]12O)C3 (some centres not stated)
GI50 [9]: > 100 µM
TGI [9]: > 100 µM
GI50 [2]: > 100000 nM
TGI [2]: > 100 µM
GI50 [3]: 75.1 µM
TGI [3]: > 100 µM
GI50 [4]: > 100 µM
TGI [4]: > 100 µM
GI50 [5]: > 100 µM
TGI [5]: > 100 µM
GI50 [6]: > 100 µM
TGI [6]: > 100 µM
GI50 [10]: > 100 µM
TGI [10]: > 100 µM
GI50 [7]: > 100 µM
TGI [7]: > 100 µM
GI50 [8]: > 100000 nM
TGI [8]: > 100 µM

CCOC(=O)/C(C#N)=C\Sc1ccccc1
TGI [1]: > 100 µM
TGI [2]: 67.3 µM
TGI [4]: > 100 µM
TGI [5]: > 100 µM
TGI [6]: 47.1 µM
TGI [7]: 84.4 µM

COc1c(-c2ccc3c(c2)OCO3)oc2cc(O)cc(O)c2c1=O
TGI [9]: 75.3 µM
TGI [1]: > 100 µM
TGI [2]: > 100 µM
TGI [3]: 72.3 µM
TGI [4]: > 100 µM
TGI [5]: > 100 µM
TGI [6]: > 100 µM
TGI [10]: > 100 µM
TGI [7]: > 100 µM

Cc1ccc(C)c(NC(=O)C(=O)C2C(=O)N(c3ccccc3)N=C2N)c1 (configuration not stated)
TGI [1]: > 100 µM
TGI [2]: > 100 µM
TGI [3]: > 100 µM
TGI [4]: > 100 µM
TGI [5]: > 100 µM
TGI [6]: > 100 µM
TGI [7]: > 100 µM
TGI [8]: > 100 µM

CN(CCCN1C(=O)c2cccc3cc([N+](=O)[O-])cc(c23)C1=O)CCN(C)CCCN1C(=O)c2cccc3cc([N+](=O)[O-])cc(c23)C1=O
TGI [2]: > 39.3 µM
TGI [3]: > 39.3 µM
TGI [4]: > 39.3 µM
TGI [5]: > 39.3 µM
TGI [6]: > 39.3 µM
TGI [7]: > 39.3 µM
TGI [8]: > 39.3 µM

C[C@]12CC(C=O)C(=O)C(O)=C1CC[C@@H]1C2CC[C@@]2(C)C1CC[C@]2(C)O (some centres not stated)
TGI [1]: 33.4 µM
TGI [2]: 52 µM
TGI [3]: 45.9 µM
TGI [4]: 96 µM
TGI [5]: 63.5 µM
TGI [6]: 51.2 µM
TGI [7]: 23.5 µM
TGI [8]: 22 µM

Cc1cc(Cl)ccc1N=C1NC(=O)C(CC(=O)Nc2cccc(C)c2C)S1 (configuration not stated)
TGI [1]: 26.5 µM
TGI [2]: > 100 µM
TGI [3]: 50.5 µM
TGI [4]: > 100 µM
TGI [5]: 68.3 µM
TGI [6]: 73.6 µM
TGI [7]: > 100 µM
TGI [8]: 65.1 µM

O=c1cc(-c2ccccc2)oc2cc(OCCCCCN3CCOCC3)cc(O)c12
GI50 [9]: 88.4 µM
TGI [9]: > 100 µM
GI50 [1]: 11000 nM
TGI [1]: 26.6 µM
GI50 [2]: 99700 nM
TGI [2]: > 100 µM
GI50 [3]: 33.7 µM
TGI [3]: 82.9 µM
GI50 [4]: > 100 µM
TGI [4]: > 100 µM
GI50 [5]: 23.9 µM
TGI [5]: 71.6 µM
GI50 [6]: > 100 µM
TGI [6]: > 100 µM
GI50 [10]: 54.1 µM
TGI [10]: > 100 µM
GI50 [7]: 40.3 µM
TGI [7]: > 100 µM

O=C1NC2(CCCCC2)C2CCCCC=C12 (configuration not stated)
TGI [1]: > 100 µM
TGI [2]: > 100 µM
TGI [3]: > 100 µM
TGI [4]: > 100 µM
TGI [5]: > 100 µM
TGI [6]: > 100 µM
TGI [7]: > 100 µM
TGI [8]: > 100 µM

Cc1ccc(-c2c3c(nn2-c2ccc(S(=O)(=O)NC(=O)NC4CCCCC4)cc2)-c2ccccc2C3)cc1
GI50 [9]: 5.88 µM
TGI [9]: 37.3 µM
GI50 [1]: 2650 nM
TGI [1]: 15.8 µM
GI50 [2]: 1860 nM
TGI [2]: 6.14 µM
TGI [3]: 20 µM
GI50 [4]: 11.8 µM
TGI [4]: 25.4 µM
GI50 [5]: 20.1 µM
TGI [5]: 49.7 µM
GI50 [6]: 14.6 µM
TGI [6]: 29.5 µM
GI50 [10]: 11.1 µM
TGI [10]: 25.3 µM
GI50 [7]: 24.3 µM
TGI [7]: > 100 µM

O=C(O)/C(Cl)=C(Cl)/C=N/NC(=O)c1cc2ccccc2cc1O
TGI [1]: > 100 µM
TGI [2]: 34.9 µM
TGI [3]: > 100 µM
TGI [4]: > 100 µM
TGI [5]: > 100 µM
TGI [6]: > 100 µM
TGI [7]: > 100 µM
TGI [8]: > 100 µM

COC(=O)c1ccc(C(=O)OC)c2nc3cc(Cl)ccc3nc12
TGI [1]: > 100 µM
TGI [2]: > 100 µM
TGI [3]: > 100 µM
TGI [4]: > 100 µM
TGI [5]: > 100 µM
TGI [6]: > 100 µM
TGI [7]: > 100 µM
TGI [8]: > 100 µM

CCC[CH2][Sn]([CH2]CCC)([O]C(=O)c1cc(F)ccc1F)[O]C(=O)c1cc(F)ccc1F
GI50 [1]: 1260 nM
TGI [1]: 2.52 µM
GI50 [2]: 347 nM
TGI [2]: 2.01 µM
GI50 [3]: 1.25 µM
TGI [3]: 2.57 µM
GI50 [4]: 1.26 µM
TGI [4]: 2.51 µM
GI50 [5]: 1.56 µM
TGI [5]: 2.9 µM
GI50 [6]: 1.4 µM
TGI [6]: 2.7 µM
GI50 [7]: 1.68 µM
TGI [7]: 3.17 µM
GI50 [8]: 703 nM
TGI [8]: 2.1 µM

N#CC(C(=N/O)/C(=N\O)C(C#N)c1ccccc1)c1ccccc1 (configuration not stated)
TGI [1]: > 100 µM
TGI [2]: > 100 µM
TGI [3]: > 100 µM
TGI [4]: > 100 µM
TGI [5]: > 100 µM
TGI [6]: > 100 µM
TGI [7]: > 100 µM
TGI [8]: > 100 µM

O=[N+]([O-])c1cccc(S(=O)(=O)N/N=C/c2cc(I)cc([N+](=O)[O-])c2O)c1
TGI [1]: 35.1 µM
TGI [2]: 81.5 µM
TGI [3]: > 100 µM
TGI [4]: 80 µM
TGI [5]: 65.5 µM
TGI [6]: 95.8 µM
TGI [7]: 73.6 µM
TGI [8]: 64.2 µM

Nn1c(-c2cccc(Cl)c2)nc2ccccc2c1=O
TGI [1]: > 100 µM
TGI [2]: > 100 µM
TGI [3]: > 100 µM
TGI [4]: > 100 µM
TGI [5]: > 100 µM
TGI [6]: > 100 µM
TGI [7]: > 100 µM
TGI [8]: > 100 µM

C[C@]12Cc3conc3C(O)=C1CC[C@@H]1C2CC[C@@]2(C)C1CC[C@]2(C)O (some centres not stated)
TGI [1]: 61.5 µM
TGI [2]: 42.3 µM
TGI [3]: 51.9 µM
TGI [4]: 87.6 µM
TGI [5]: > 100 µM
TGI [6]: 89.5 µM
TGI [7]: 89.4 µM
TGI [8]: 59.2 µM

CN(C)CC1C(=O)O[C@H]2[C@H]1CC/C(COC(=O)NCc1ccc(Cn3c(=O)sn(CCCI)c3=O)cc1)=C\CC[C@@]1(C)O[C@@H]21 (some centres not stated)
GI50 [1]: 786 nM
TGI [1]: 2.56 µM
GI50 [2]: 947 nM
TGI [2]: 3.43 µM
GI50 [3]: 7.02 µM
TGI [3]: 13.6 µM
GI50 [4]: 3.19 µM
TGI [4]: 10.3 µM
GI50 [5]: 7.26 µM
TGI [5]: 14.2 µM
GI50 [6]: 0.861 µM
TGI [6]: 1.58 µM
GI50 [10]: 0.251 µM
TGI [10]: 7.32 µM
GI50 [7]: 0.945 µM
TGI [7]: 1.84 µM
GI50 [8]: 836 nM
TGI [8]: 1.69 µM
